Patent publication US20240246964A1 (Arbutus Biopharma Corporation, priority 2021, published 2024)

Target: human PD-L1 (Homo sapiens (Human), UniProt Q9NZQ7)
Experiment: T cell activation luciferase reporter cell culture system (T Cell Activation Assay)
Assay type: cell-based
Details: luciferase reporter assay; PD-L1 aAPC/CHO-K1 cells with PD-1 effector Jurkat T cells

Chain of human PD-L1 (Q9NZQ7 19-290): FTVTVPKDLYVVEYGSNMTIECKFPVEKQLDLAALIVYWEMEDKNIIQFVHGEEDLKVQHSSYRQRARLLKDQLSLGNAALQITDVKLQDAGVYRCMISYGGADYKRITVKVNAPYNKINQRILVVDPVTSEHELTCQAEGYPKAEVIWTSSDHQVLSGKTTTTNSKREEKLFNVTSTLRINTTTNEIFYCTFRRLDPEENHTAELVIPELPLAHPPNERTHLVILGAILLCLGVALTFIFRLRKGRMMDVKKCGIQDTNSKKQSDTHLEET

Row | Compound | EC50 [nM]
1 | COc1nc(-c2cccc(-c3ccnc(-c4ccc(CNC5CCN(C(C)=O)CC5)c(OC(F)F)c4)c3Cl)c2Cl)ccc1CNC1CCN(C(C)=O)CC1 [Example 394, 1-(4-(((6-(3-(2-(4-(((1-Acetylpiperidin-4-yl)amino)methyl)-3-(difluoromethoxy)phenyl)-3-chloropyridin-4-yl)-2-chlorophenyl)-2-methoxypyridin-3-yl)methyl)amino)piperidin-1-yl)ethan-1-one] | 22.2
2 | COc1cc(-c2nccc(-c3cccc(-c4ccc(CN5CC6(CCC(=O)N6)C5)c(OC)n4)c3Cl)c2Cl)ccc1CN1CCC(NC(C)=O)CC1 [Example 401, N-(1-(4-(3-Chloro-4-(2-chloro-3-(6-methoxy-5-((6-oxo-2,5-diazaspiro[3.4]-octan-2-yl)methyl)pyridin-2-yl)phenyl)pyridin-2-yl)-2-methoxybenzyl)piperidin-4-yl)acetamide] | 20.6
3 | COc1cc(-c2nccc(-c3cccc(-c4ccc(CNC5CCN(C(C)=O)CC5)c(OC)n4)c3Cl)c2Cl)ccc1CNC[C@H]1CNC(=O)C1 [Example 407, (S)-4-(((4-(4-(3-(5-(((1-Acetylpiperidin-4-yl)amino)methyl)-6-methoxypyridin-2-yl)-2-chlorophenyl)-3-chloropyridin-2-yl)-2-methoxybenzyl)amino)methyl)pyrrolidin-2-one] | 20
4 | COc1cc(-c2nccc(-c3cccc(-c4ccc(CN5CC6(C5)CN(C(C)=O)C6)c(OC)n4)c3C)c2Cl)ccc1CN1CC2(C1)CN(C(C)=O)C2 [Example 409, 1-(6-((6-(3-(2-(4-((6-acetyl-2,6-diazaspiro[3.3]heptan-2-yl)methyl)-3-methoxyphenyl)-3-chloropyridin-4-yl)-2-methylphenyl)-2-methoxypyridin-3-yl)methyl)-2,6-diazaspiro[3.3]heptan-2-yl)ethan-1-one] | 274
5 | COc1cc(-c2nccc(-c3cccc(-c4ccc(CN[C@H]5CC[C@@H](O)CC5)c(OC)n4)c3Cl)c2Cl)ccc1CN[C@H]1CC[C@@H](O)CC1 [Example 410, (1s,4s)-4-(((6-(2-Chloro-3-(3-chloro-2-(4-((((1s,4s)-4-hydroxycyclohexyl)amino)methyl)-3-methoxyphenyl)pyridin-4-yl)phenyl)-2-methoxypyridin-3-yl)methyl)amino)cyclohexan-1-ol] | 46.3
6 | COc1cc(-c2nccc(-c3cccc(-c4ccc(CN5CCOCC5)c(OC)n4)c3Cl)c2Cl)ccc1CN1CCOCC1 [Example 411, 4-((6-(2-Chloro-3-(3-chloro-2-(3-methoxy-4-(morpholinomethyl)phenyl)pyridin-4-yl)phenyl)-2-methoxypyridin-3-yl)methyl)morpholine] | ≥ 10000
7 | COc1cc(-c2nccc(-c3cccc(-c4ccc(CN5CCC(O)CC5)c(OC)n4)c3Cl)c2Cl)ccc1CN1CCC(O)CC1 [Example 412, 1-((6-(2-Chloro-3-(3-chloro-2-(4-((4-hydroxypiperidin-1-yl)methyl)-3-methoxyphenyl)pyridin-4-yl)phenyl)-2-methoxypyridin-3-yl)methyl)piperidin-4-ol] | 15.7
8 | COc1cc(-c2nccc(-c3cccc(-c4ccc(CNC5CCN(C(=O)N(C)C)CC5)c(OC)n4)c3Cl)c2Cl)ccc1CNC1CCN(C(=O)N(C)C)CC1 [Example 419, 4-(((6-(2-Chloro-3-(3-chloro-2-(4-(((1-(dimethylcarbamoyl)piperidin-4-yl)amino)methyl)-3-methoxyphenyl)pyridin-4-yl)phenyl)-2-methoxypyridin-3-yl)methyl)amino)-N,N-dimethylpiperidine-1-carboxamide] | 19.5

Further compounds by falling EC50, results first:

Row | EC50 [nM] | Compound
9 | 81.8 | CNCc1ccc(-c2nccc(-c3cccc(-c4ccc(CNC)c(OC)n4)c3C)c2Cl)cc1OC [Example 395, 1-(6-(3-(3-Chloro-2-(3-methoxy-4-((methylamino)methyl)phenyl)pyridin-4-yl)-2-methylphenyl)-2-methoxypyridin-3-yl)-N-methylmethanamine]
10 | 62.7 | COc1cc(-c2nccc(-c3cccc(-c4ccc(CNC5CCN(C(C)=O)CC5)c(OC)n4)c3Cl)c2Cl)ccc1CN1CCC(C)(N)CC1 [Example 406, 1-(4-(((6-(3-(2-(4-((4-Amino-4-methylpiperidin-1-yl)methyl)-3-methoxyphenyl)-3-chloropyridin-4-yl)-2-chlorophenyl)-2-methoxypyridin-3-yl)-methyl)-amino)piperidin-1-yl)ethan-1-one]
11 | 52.1 | COc1cc(-c2nccc(-c3cccc(-c4ccc(CN5CCC(NC(C)=O)CC5)c(OC)n4)c3Cl)c2Cl)ccc1CNC1CCOCC1 [Example 432, N-(1-((6-(2-Chloro-3-(3-chloro-2-(3-methoxy-4-(((tetrahydro-2H-pyran-4-yl)amino)methyl)phenyl)pyridin-4-yl)phenyl)-2-methoxypyridin-3-yl)methyl)piperidin-4-yl)acetamide]
12 | 44.6 | COc1cc(-c2nccc(-c3cccc(-c4ccc(CN5CC6(C5)CN(C(C)=O)C6)c(OC)n4)c3Cl)c2Cl)ccc1CN1CCC(NC(C)=O)CC1 [Example 402, N-(1-(4-(4-(3-(5-((6-acetyl-2,6-diazaspiro[3.3]heptan-2-yl)methyl)-6-methoxypyridin-2-yl)-2-chlorophenyl)-3-chloropyridin-2-yl)-2-methoxybenzyl)piperidin-4-yl)acetamide]
13 | 42.6 | COc1cc(-c2nccc(-c3cccc(-c4ccc(CNC5CCN(CC(F)F)CC5)c(OC)n4)c3Cl)c2Cl)ccc1CNC1CCN(CC(F)F)CC1 [Example 420, N-((6-(2-Chloro-3-(3-chloro-2-(4-(((1-(2,2-difluoroethyl)piperidin-4-yl)amino)methyl)-3-methoxyphenyl)pyridin-4-yl)phenyl)-2-methoxypyridin-3-yl)methyl)-1-(2,2-difluoroethyl)piperidin-4-amine]
14 | 39.4 | COc1cc(-c2nccc(-c3cccc(-c4ccc(CN5CC6(CNC(=O)C6)C5)c(OC)n4)c3C)c2Cl)ccc1CN1CC2(CNC(=O)C2)C1 [Example 408, 2-((6-(3-(3-chloro-2-(3-methoxy-4-((7-oxo-2,6-diazaspiro[3.4]octan-2-yl)methyl)phenyl)pyridin-4-yl)-2-methylphenyl)-2-methoxypyridin-3-yl)methyl)-2,6-diazaspiro[3.4]octan-7-one]
15 | 23.9 | COc1cc(-c2nccc(-c3cccc(-c4ccc(CNC5CCN(C(C)=O)CC5)c(OC)n4)c3Cl)c2C#N)ccc1CNC1CCN(C(C)=O)CC1 [Example 404, 2-(4-(((1-Acetylpiperidin-4-yl)amino)methyl)-3-methoxyphenyl)-4-(3-(5-(((1-acetylpiperidin-4-yl)amino)methyl)-6-methoxypyridin-2-yl)-2-chlorophenyl)nicotinonitrile]
16 | 18.9 | COc1cc(-c2nccc(-c3cccc(-c4ccc(CNC[C@@H]5CCC(=O)N5)c(OC)n4)c3Cl)c2Cl)ccc1CN1CCC(NC(C)=O)CC1 [Example 403, (S)—N-(1-(4-(3-Chloro-4-(2-chloro-3-(6-methoxy-5-((((5-oxopyrrolidin-2-yl)methyl)amino)methyl)pyridin-2-yl)phenyl)pyridin-2-yl)-2-methoxybenzyl)piperidin-4-yl)acetamide]
17 | 11.8 | COc1cc(-c2nccc(-c3cccc(-c4ccc(CNC5CCN(C)C(=O)C5)c(OC)n4)c3Cl)c2Cl)ccc1CNC1CCN(C)C(=O)C1 (centres unmarked) [Example 418, 4-(((6-(2-Chloro-3-(3-chloro-2-(3-methoxy-4-(((1-methyl-2-oxopiperidin-4-yl)amino)methyl)phenyl)pyridin-4-yl)phenyl)-2-methoxypyridin-3-yl)methyl)amino)-1-methylpiperidin-2-one]
